Laboratory results: article PMC4579270, “Identification and Characterization of an Irreversible Inhibitor of CDK2” (Chemistry & Biology, 2015)
Read-outs that look alike come from different tables or passages of the source.

What was measured:
CDK2^D86A = target: T1, CDK2^D86A (Homo sapiens, UniProt P24941, D86A); assay: ESI-MS of covalent adduct, mutant; conditions: CDK2^D86A/cyclin A, overnight incubation
T1 construct: GST (N, cleaved yes); made in house; host or cells: Escherichia coli; phosphorylated in vitro by GST-CAK
Description: (§1) These residues were individually mutated to an alanine, glutamate, or valine, respectively, and the resulting mutant CDK2/cyclin A complexes were analyzed by ESI-MS following overnight incubation with either NU6300 (exact mass 413.15) or DMSO (Figure S2 and Table S1).
(§2) Figure S2, Related to Figure 3. Identification of the site of CDK2 modification by NU6300. (A-G) Single site CDK2 mutants CDK2D86A, CDK2K88E, and CDK2K89V identify the site of CDK2 modification by NU6300. These mutations change the CDK2 sequence to that of CDK7 and are known not to disrupt the CDK2 fold. Mass spectra of CDK2 mutants:
(§3) (A), (D), CDK2D86A/cyclin A; (B), (E), CDK2K88E/cyclin A; (C), (F), CDK2K89V/cyclin A (3 mg/mL) pre-incubated overnight in the absence/presence of NU6300. (A-C), positive controls, CDK2/cyclin A mutants assayed in the absence of NU6300; (D-F), CDK2/cyclin A mutants pre-incubated with NU6300. For each mutant, the experimentally determined and […]
(§4) (G) Protein kinase activity of authentic CDK2 and single site CDK2 mutants following incubation with NU6300 or NU6310. Samples were taken at the indicated number of minutes after initiation of the reaction. Note that compared to authentic CDK2, the single site Lys88 and Lys89 mutants have a slower rate of reaction (Compare LHS panels). […]

CDK2^K89V = target: T2, CDK2^K89V (Homo sapiens, UniProt P24941, K89V); assay: ESI-MS of covalent adduct, mutant; conditions: CDK2^K89V/cyclin A, overnight incubation
T2 construct: GST (N, cleaved yes); made in house; host or cells: Escherichia coli; phosphorylated in vitro by GST-CAK
Description: as §1, §2, §3, §4

CDK9-Cyclin T1 = CDK9-Cyclin T1 (Homo sapiens, UniProt P50750); assay: Dundee kinase screen re-test (standard format and 4 hour pre-incubation); type: biochemical; conditions: CDK9/cyclin T1, 0.5µM
Description: (§5) Prior to determining its cellular activity, we carried out a screen to assess its selectivity against a panel of 131 protein kinases under conditions that would not distinguish between a reversible or irreversible mode of action. […] These 13 kinases and 29 additional kinases, selected for their known sensitivity to other inhibitors within the purine series, were then tested in a modified screening format in which the assay was repeated following a 4-hr pre-incubation (Table S3B). […] However, conformational flexibility around the active site may promote such an interaction with a residue from another part of the structure ([Martin et al., 2012]).
(§6) Table S3, Related to Figure 4. NCL-0006300 protein kinase selectivity. […]
(§7) Dundee protein kinase screen (Bain et al., 2007). […]
(§8) (B) Selected kinases were re-tested in the Dundee kinase screen against NU6300 at a single concentration of 0.5 µM both in the standard assay format and following a 4 hour pre-incubation in the presence of NU6300. Kinases which have very low activity after the 4 hour incubation so that results might not be wholly reliable are boxed in salmon. Kinases where the activity after a 4 hour pre-incubation is < 50% that in the standard assay format are highlighted in red.

CLK2 = CLK2 (Homo sapiens, UniProt P49760); assay: as above; type: biochemical; conditions: CLK2, 0.5µM
Description: as §5, §6, §7, §8

IR = IR (Homo sapiens, UniProt P06213); assay: as above; type: biochemical
Description: as §5, §6, §7, §8

IRR = IRR (Homo sapiens, UniProt P14616); assay: as above; type: biochemical
Description: as §5, §6, §7, §8

MLK3 = MLK3 (Homo sapiens, UniProt Q16584); assay: as above; type: biochemical; conditions: MLK3, 0.5µM
Description: as §5, §6, §7, §8

[1] = 4hr RT preincubation, read-out: %Remaining activity at 0.5µM NU6300 - 4hr RT preincubation
[2] = usual format, read-out: %Remaining activity at 0.5µM NU6300 - Usual assay format

IRR, sequence (P14616 27-1297): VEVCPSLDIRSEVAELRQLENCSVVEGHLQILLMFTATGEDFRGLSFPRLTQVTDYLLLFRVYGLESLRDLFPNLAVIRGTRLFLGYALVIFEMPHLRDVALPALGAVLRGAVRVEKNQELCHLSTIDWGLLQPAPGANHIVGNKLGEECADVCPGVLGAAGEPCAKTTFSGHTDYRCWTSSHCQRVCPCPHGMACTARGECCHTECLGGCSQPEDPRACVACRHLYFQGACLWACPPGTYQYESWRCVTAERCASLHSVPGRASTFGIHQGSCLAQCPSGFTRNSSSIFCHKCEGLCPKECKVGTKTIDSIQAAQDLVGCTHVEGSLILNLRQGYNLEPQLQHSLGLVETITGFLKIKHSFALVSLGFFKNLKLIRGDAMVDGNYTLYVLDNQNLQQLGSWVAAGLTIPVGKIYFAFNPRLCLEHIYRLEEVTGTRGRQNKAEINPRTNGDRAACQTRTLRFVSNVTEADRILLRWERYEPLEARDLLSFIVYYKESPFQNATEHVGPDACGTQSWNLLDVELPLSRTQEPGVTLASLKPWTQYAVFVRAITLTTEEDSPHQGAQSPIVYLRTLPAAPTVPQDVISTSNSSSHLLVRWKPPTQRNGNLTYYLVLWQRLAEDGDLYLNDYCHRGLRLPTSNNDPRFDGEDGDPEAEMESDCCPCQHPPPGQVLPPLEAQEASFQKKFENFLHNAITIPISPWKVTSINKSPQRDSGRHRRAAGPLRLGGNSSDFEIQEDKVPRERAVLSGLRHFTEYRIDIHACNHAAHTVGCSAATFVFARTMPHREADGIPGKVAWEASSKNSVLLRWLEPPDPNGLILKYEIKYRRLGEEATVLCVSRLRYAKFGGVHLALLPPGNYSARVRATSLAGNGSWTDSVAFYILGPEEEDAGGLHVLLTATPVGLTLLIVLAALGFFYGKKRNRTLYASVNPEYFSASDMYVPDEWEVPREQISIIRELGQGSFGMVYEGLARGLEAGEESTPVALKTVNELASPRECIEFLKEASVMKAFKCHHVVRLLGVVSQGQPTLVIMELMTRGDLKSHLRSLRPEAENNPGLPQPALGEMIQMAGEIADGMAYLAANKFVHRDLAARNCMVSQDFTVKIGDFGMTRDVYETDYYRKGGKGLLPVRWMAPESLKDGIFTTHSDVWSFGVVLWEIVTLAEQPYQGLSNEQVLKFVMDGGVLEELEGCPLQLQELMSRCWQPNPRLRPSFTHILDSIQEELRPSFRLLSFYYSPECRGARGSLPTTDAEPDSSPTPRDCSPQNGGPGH
CDK9-Cyclin T1, sequence (P50750 whole entry): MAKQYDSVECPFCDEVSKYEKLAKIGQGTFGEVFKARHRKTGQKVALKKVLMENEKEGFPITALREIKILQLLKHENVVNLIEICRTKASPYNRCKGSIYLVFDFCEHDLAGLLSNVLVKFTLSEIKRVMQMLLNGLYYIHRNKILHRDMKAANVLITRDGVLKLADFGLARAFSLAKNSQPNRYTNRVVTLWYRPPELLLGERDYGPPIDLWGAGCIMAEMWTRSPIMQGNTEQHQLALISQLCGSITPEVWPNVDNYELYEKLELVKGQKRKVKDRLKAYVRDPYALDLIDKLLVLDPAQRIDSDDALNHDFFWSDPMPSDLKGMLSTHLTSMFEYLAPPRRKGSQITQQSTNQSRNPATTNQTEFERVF
CDK9-Cyclin T1, sequence (O60563 whole entry partner): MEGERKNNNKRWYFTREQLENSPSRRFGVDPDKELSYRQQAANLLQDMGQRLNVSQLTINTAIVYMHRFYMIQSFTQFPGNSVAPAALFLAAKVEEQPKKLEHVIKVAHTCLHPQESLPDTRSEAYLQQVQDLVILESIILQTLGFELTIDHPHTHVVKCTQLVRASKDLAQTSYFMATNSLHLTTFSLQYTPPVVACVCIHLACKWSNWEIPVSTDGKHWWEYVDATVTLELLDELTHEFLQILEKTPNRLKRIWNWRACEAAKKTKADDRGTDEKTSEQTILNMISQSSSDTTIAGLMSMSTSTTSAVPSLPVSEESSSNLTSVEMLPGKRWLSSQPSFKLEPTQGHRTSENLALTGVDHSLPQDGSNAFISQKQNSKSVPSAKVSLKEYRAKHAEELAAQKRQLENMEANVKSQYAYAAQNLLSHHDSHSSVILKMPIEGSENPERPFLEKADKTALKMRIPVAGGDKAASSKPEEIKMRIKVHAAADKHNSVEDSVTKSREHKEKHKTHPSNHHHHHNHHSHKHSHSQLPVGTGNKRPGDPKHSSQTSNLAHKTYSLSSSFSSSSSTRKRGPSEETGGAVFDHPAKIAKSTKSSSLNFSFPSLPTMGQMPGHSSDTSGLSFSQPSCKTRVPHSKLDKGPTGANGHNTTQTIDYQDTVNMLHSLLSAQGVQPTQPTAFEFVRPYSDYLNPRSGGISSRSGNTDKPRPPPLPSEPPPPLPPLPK
IR, sequence (P06213 28-1382): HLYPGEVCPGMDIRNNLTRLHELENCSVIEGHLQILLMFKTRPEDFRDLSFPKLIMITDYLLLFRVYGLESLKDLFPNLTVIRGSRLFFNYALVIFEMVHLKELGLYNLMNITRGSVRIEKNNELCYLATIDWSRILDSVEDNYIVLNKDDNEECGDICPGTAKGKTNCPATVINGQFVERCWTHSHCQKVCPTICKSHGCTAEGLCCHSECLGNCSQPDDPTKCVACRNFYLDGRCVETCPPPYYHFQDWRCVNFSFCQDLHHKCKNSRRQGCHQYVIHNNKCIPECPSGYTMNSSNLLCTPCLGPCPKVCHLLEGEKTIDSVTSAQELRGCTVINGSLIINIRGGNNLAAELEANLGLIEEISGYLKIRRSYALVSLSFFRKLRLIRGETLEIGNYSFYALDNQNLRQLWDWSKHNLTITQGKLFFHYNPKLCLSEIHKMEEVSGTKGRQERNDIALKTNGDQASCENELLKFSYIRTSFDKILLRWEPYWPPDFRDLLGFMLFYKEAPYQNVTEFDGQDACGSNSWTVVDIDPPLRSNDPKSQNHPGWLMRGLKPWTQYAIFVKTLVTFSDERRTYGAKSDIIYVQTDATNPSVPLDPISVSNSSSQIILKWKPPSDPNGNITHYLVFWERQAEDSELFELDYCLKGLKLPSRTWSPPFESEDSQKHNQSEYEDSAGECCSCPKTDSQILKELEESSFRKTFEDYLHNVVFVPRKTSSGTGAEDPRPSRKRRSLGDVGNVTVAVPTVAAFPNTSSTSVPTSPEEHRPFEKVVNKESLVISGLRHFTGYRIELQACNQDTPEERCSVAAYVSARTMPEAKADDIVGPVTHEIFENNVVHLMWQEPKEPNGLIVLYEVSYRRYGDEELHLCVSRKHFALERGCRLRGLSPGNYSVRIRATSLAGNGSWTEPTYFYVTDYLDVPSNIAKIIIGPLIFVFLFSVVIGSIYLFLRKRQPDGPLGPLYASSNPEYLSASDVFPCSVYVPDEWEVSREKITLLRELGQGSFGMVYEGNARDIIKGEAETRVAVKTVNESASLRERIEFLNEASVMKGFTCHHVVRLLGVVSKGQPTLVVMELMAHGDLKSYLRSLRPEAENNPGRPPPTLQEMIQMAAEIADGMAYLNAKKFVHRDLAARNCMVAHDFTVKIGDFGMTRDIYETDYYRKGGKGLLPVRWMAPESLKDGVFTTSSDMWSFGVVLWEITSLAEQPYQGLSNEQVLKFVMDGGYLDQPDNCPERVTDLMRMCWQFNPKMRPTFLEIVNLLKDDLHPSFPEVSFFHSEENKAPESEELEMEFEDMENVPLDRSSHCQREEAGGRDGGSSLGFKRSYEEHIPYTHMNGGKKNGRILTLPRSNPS
MLK3, sequence (Q16584 whole entry): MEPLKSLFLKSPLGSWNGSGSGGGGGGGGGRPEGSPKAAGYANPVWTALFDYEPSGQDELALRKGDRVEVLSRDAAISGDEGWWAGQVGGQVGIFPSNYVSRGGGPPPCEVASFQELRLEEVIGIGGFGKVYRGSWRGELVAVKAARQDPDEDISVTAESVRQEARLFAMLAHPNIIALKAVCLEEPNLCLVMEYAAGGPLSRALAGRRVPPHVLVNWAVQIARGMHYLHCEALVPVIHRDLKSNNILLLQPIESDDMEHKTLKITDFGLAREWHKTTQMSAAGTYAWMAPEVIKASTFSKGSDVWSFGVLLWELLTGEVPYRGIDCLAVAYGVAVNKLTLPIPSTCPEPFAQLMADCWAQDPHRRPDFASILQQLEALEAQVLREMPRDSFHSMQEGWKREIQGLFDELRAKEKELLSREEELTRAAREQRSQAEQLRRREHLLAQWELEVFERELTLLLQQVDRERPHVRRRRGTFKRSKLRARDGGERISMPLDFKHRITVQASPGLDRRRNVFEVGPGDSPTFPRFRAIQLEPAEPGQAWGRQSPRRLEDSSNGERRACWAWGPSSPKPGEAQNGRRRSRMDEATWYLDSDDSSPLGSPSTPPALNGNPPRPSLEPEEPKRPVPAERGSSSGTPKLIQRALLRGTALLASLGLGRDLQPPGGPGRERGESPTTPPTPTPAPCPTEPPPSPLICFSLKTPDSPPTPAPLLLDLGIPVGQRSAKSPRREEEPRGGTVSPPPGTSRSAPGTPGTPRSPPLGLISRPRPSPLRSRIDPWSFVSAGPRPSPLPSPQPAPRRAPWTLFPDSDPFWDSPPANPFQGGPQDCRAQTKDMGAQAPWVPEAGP
CLK2, sequence (P49760 whole entry): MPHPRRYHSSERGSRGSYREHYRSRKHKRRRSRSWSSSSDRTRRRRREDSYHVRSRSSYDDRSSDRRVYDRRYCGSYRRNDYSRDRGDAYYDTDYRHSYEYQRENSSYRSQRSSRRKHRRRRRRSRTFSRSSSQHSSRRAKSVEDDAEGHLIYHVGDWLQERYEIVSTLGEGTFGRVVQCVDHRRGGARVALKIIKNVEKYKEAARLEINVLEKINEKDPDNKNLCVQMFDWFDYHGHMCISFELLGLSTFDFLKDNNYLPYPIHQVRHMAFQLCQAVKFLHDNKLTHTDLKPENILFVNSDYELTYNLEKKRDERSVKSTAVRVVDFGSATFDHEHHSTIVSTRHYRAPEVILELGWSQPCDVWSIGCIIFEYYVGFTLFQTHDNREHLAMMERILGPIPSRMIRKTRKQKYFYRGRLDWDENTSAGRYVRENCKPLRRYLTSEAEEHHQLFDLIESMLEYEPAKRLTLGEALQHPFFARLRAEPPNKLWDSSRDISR

## C=CS(=O)(=O)c1ccc(Nc2nc(OCC3CCCCC3)c3nc[nH]c3n2)cc1 [NU6300, 6-(cyclohexylmethoxy)-N-(4-(vinylsulfonyl)phenyl)-9H-purin-2-amine]
CDK2^D86A
  mass added to major CDK2 species (ESI-MS): 414 Da
CDK2^K89V
  mass added to major CDK2 species (ESI-MS): no additional mass
CDK9-Cyclin T1; [1]
  remaining activity at 0.5 µM: 127%
CDK9-Cyclin T1; [2]
  remaining activity at 0.5 µM: 89%
CLK2; [1]
  remaining activity at 0.5 µM: 104%
CLK2; [2]
  remaining activity at 0.5 µM: 35%
IR; [1]
  remaining activity at 0.5 µM: 58%
IR; [2]
  remaining activity at 0.5 µM: 48%
IRR; [1]
  remaining activity at 0.5 µM: 45%
IRR; [2]
  remaining activity at 0.5 µM: 73%
MLK3; [1]
  remaining activity at 0.5 µM: 52%
MLK3; [2]
  remaining activity at 0.5 µM: 5%
